# Experimental data taken from PubChem BioAssay AID1963985 (Molecular Pharmacology Branch, DTP, NCI, 2024).
# System: 252836-082-R-J2-PDC tumor spheroids, viability
# Assay: Anticancer human tumor 252836-082-R-J2-PDC patient-derived head and neck squamous cell carcinoma cell line growth inhibition [PI3K]
# Conditions: spheroids with HUVEC and MSC; for IC50: curve of first compound; for viability, T/C: stronger effect = lower value
# Text: Combinatorial screen of targeted agents with the PI3K inhibitors inavolisib, alpelisib, duvelisib, and copanlisib in multi-cell type tumor spheroids
# A high-throughput screen of multi-cell type tumor spheroids was designed to identify active combinations of targeted small molecules and PI3K pathway inhibitors. Complex spheroids include a stromal component modeled by human endothelial cells (HUVEC) and fibroblasts modeled by human mesenchymal stem cells (MSCs). The concentration ranges selected for each drug and investigational agent were based upon clinically achievable concentrations if the clinical Cmax of the agent was known.
# Compounds. The drugs and investigational agents: inavolisib (NSC800729), alpelisib (NSC765974), duvelisib (NSC772469), copanlisib (NSC816437), ipatasertib (NSC767898), afuresertib (NSC778305), talazoparib (NSC767125), sapanisertib (NSC764658), selumetinib (NSC741078), tovorafenib (DAY101, NSC766906), vemurafenib (NSC761431), ravoxertinib (NSC781343), sotorasib (NSC818433), MRTX1133 (NSC 836407), abemaciclib (NSC 768073), palbociclib (NSC758247), venetoclax (NSC 766270), SY5609 (NSC837396), enzalutamide (NSC755605), and darolutamide (NSC825331), were obtained from the National Cancer Institute (NCI) Developmental Therapeutics Program Chemical Repository. The FDA-approved anticancer drug set is available from the NCI Developmental Therapeutics Program. […] The stock solutions were prepared in dimethyl sulfoxide (DMSO, Sigma-Aldrich, St. Louis, MO, cat. D2650) at 800-fold the tested concentration and stored at -70 degrees C prior to their use. All drugs and investigational agents were tested over a range starting from a high concentration at or near the clinical Cmax and decreasing in half-log increments. If the clinical Cmax for an agent had not been determined, the highest concentration tested was 10 microM.
# Cell Culture. All cells were maintained in an incubator at 37 degrees C and 5% CO2 with 95% humidity. The PDC lines were cultured according to standard operating procedures established by the NCI PDMR (https://pdmr.cancer.gov/sops/default.htm). All PDCs were thawed and cultured in Matrigel-coated flasks prepared with a working solution of 1X Ham's F-12 nutrient mix, without supplementation (Invitrogen, Waltham, MA, cat. 11765054), 100 U/mL penicillin-streptomycin (Invitrogen, cat. 15140122), and 2.5% Matrigel (Corning Inc., Corning, NY, cat. 354248) for the first three passages. The 354836-022-R-J1-PDC, 475296-252-R-J1-PDC, and 997726-040-R-J2-PDC lines were cultured in 6A media, which includes advanced DMEM/F-12 (Thermo Fisher Scientific, cat. 12634028), 10 mM HEPES (Thermo Fisher Scientific, cat. 15630080), 1X GlutaMAX supplement (Thermo Fisher Scientific, cat. 35050061), 0.1 mg/mL primocin (InvivoGen, San Diego, CA, cat. ant-pm-2), 10% defined fetal bovine serum, heat inactivated (HyClone Laboratories Inc., Logan, UT, cat. SH30070.03HI), 50% L-WRN conditioned media (ATCC, cat. CRL-3276), 1.25 mM N-Acetyl-L-cysteine (Sigma-Aldrich, cat. A9165), 10 mM nicotinamide (Sigma-Aldrich, cat. N0636), 1X B-27 supplement (Thermo Fisher Scientific, cat. 17504044), 1X N-2 supplement (Thermo Fisher Scientific, cat. 17502048), and 10 microM Y-27632 dihydrochloride (Tocris Bioscience, Bristol, United Kingdom, cat. 1254). The 624824-186-R-J2-PDC line was cultured in 6C/Colon 1B media, which includes all 6A media components plus 50 ng/mL human EGF recombinant protein (Thermo Fisher Scientific, cat. PHG0311). […]
# 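Note: spheroids exposed to agents for seven days before readout.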
# 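Throughout, for viability, T/C: percent of vehicle DMSO control viability so 100% = untreated growth.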
smiles,measurement,setting,value
Cn1cnc2c(F)c(Nc3ccc(Br)cc3Cl)c(C(=O)NOCCO)cc21 + CC(Nc1ccc2c(c1)OCCn1cc(N3C(=O)OCC3C(F)F)nc1-2)C(N)=O,IC50,second compound 0.00316 µM,> 3 µM
same,IC50,second compound 0.01 µM,2.42 µM
same,IC50,second compound 0.0316 µM,1.5 µM
same,IC50,second compound 0.1 µM,0.558 µM
same,IC50,second compound 0.316 µM,< 0.00949 µM
same,IC50,second compound 1 µM,< 0.00949 µM
same,"viability, T/C","second compound 0.00316 µM, first compound 0.00949 µM",81.4%
same,"viability, T/C","second compound 0.00316 µM, first compound 0.03 µM",73.8%
same,"viability, T/C","second compound 0.00316 µM, first compound 0.0949 µM",86.3%
same,"viability, T/C","second compound 0.00316 µM, first compound 0.3 µM",79.6%
same,"viability, T/C","second compound 0.00316 µM, first compound 0.949 µM",72.4%
same,"viability, T/C","second compound 0.00316 µM, first compound 3 µM",52.1%
same,"viability, T/C","second compound 0.01 µM, first compound 0.00949 µM",81.7%
same,"viability, T/C","second compound 0.01 µM, first compound 0.03 µM",71.2%
same,"viability, T/C","second compound 0.01 µM, first compound 0.0949 µM",78.5%
same,"viability, T/C","second compound 0.01 µM, first compound 0.3 µM",76.9%
same,"viability, T/C","second compound 0.01 µM, first compound 0.949 µM",73.8%
same,"viability, T/C","second compound 0.01 µM, first compound 3 µM",44.5%
same,"viability, T/C","second compound 0.0316 µM, first compound 0.00949 µM",66.1%
same,"viability, T/C","second compound 0.0316 µM, first compound 0.03 µM",60.7%
same,"viability, T/C","second compound 0.0316 µM, first compound 0.0949 µM",77.9%
same,"viability, T/C","second compound 0.0316 µM, first compound 0.3 µM",65.2%
same,"viability, T/C","second compound 0.0316 µM, first compound 0.949 µM",55.1%
same,"viability, T/C","second compound 0.0316 µM, first compound 3 µM",42.4%
same,"viability, T/C","second compound 0.1 µM, first compound 0.00949 µM",58.9%
same,"viability, T/C","second compound 0.1 µM, first compound 0.03 µM",54.7%
same,"viability, T/C","second compound 0.1 µM, first compound 0.0949 µM",58.4%
same,"viability, T/C","second compound 0.1 µM, first compound 0.3 µM",51.7%
same,"viability, T/C","second compound 0.1 µM, first compound 0.949 µM",47.8%
same,"viability, T/C","second compound 0.1 µM, first compound 3 µM",31.4%
same,"viability, T/C","second compound 0.316 µM, first compound 0.00949 µM",49.9%
same,"viability, T/C","second compound 0.316 µM, first compound 0.03 µM",47.6%
same,"viability, T/C","second compound 0.316 µM, first compound 0.0949 µM",47.5%
same,"viability, T/C","second compound 0.316 µM, first compound 0.3 µM",46.3%
same,"viability, T/C","second compound 0.316 µM, first compound 0.949 µM",30.8%
same,"viability, T/C","second compound 0.316 µM, first compound 3 µM",18.2%
same,"viability, T/C","second compound 1 µM, first compound 0.00949 µM",42.5%
same,"viability, T/C","second compound 1 µM, first compound 0.03 µM",40%
same,"viability, T/C","second compound 1 µM, first compound 0.0949 µM",37%
same,"viability, T/C","second compound 1 µM, first compound 0.3 µM",38%
same,"viability, T/C","second compound 1 µM, first compound 0.949 µM",29.1%
same,"viability, T/C","second compound 1 µM, first compound 3 µM",13.3%
